Measurements taken from patent US10918628B2, “Treatment of synucleinopathies” (Deutsches Zentrum für Neurodegenerative Erkrankungen e. V. …, priority 2016, dated 2021).
Where “and” joins values, the source holds several entries; their conditions need not be identical. Equal entries are not always repeated. Where two headings read alike, the source gives them in different places.

Legend:
[1] = system: α-syn overexpressing LUHMES cells; experiment: LDH release into the culture medium as measure of α-syn-induced cell death; assay type: cell-based, human; conditions: for effect of specific PDE inhibitors on α-syn mediated toxicity (LDH release): FIG. 2B-I
α-syn = experiment: Western blot quantification of α-syn bands; assay type: cell-based, human
[2] = system: α-syn transduced LUHMES neurons; experiment: High-throughput screening of FDA-approved drugs for neuroprotective efficacy against α-syn (propidium iodide / Hoechst 33342 survival); assay type: cell-based, human; conditions: 3 μM and 10 μM, each in triplicates (six runs); six days after transduction
[3] = system: TH+ neurons in the substantia nigra; experiment: Stereological counting of TH+ cells in the substantia nigra after intranigral rAAV injection; assay type: in vivo, mice
Procedure: FIG. 5 Vinpocetine protects against α-syn-induced toxicity in vivo. (A) Experimental time flow. Grey bar: time point of stereotactical injection. (B) Experimental groups. Mice were injected stereotactically with either NaCl (control injection) or rAAV to overexpress luciferase (rAAV-Luc, control protein), or alpha-synuclein (rAAV-α-syn). Animals of each injection group were then randomized with a 1:1 allocation to be treated with once daily intraperitoneal injections of either solvent or vinpocetine for a 9-week period. (C) Representative images of the substantia nigra, immunostained for tyrosine hydroxylase (TH, grey) to identify dopaminergic neurons in solvent treated mice. Circle: area of cell loss upon α-syn overexpression. (D) Quantification of TH^+ cells on the control (Ctrl) side and the stereotactic injection side of solvent treated mice. On the injection side there was a significant loss of TH^+ cells (dark grey bar, right panel) after α-syn overexpression. (E) Images of the TH-immunostained substantia nigra of vinpocetine treated mice of the three injection groups. […] (F) Quantification of the number of TH^+ cells on the control (Ctrl) side and the stereotactic injection side of vinpocetine treated mice. […] Data are mean±s.e.m. Scale bars: 1 mm.
To investigate the neurotoxicity of α-syn in vivo, recombinant adeno-associated viral (rAAV) vectors were stereotactically injected into the substantia nigra of 11 weeks old mice to overexpress human wild type α-syn (rAAV-α-syn; FIG. 5A). The injection of rAAV vectors expressing luciferase (rAAV-luc) or injections with NaCl were used as controls for the toxicity of viral-mediated protein overexpression or the injection procedure itself. The treatment started one week after the intranigral injections. Therefore, the mice of each injection group (NaCl, rAAV-luc, and rAAV-α-syn) were randomized to be treated by daily intraperitoneal injections with 25 mg vinpocetine in solvent or the corresponding volume of solvent alone (FIG. 5B). All animals survived the injection procedure and treatment period. A subgroup of animals were not treated and sacrificed three weeks after injection to determine the transduction rate for rAAV-α-syn and rAAV-luc (each n=3).
To quantify the extent of neurodegeneration induced by rAAV mediated overexpression of α-syn, tyrosine-hydroxylase (TH) stainings of the substantia nigra and the striatum were performed. The number of TH^+ cells was determined by stereological counting. In the group of NaCl injected mice with solvent treatment, there was no significant difference in the number of TH^+ neurons between the injected (4108±54 cells) and the non-injected side (4168±92 cells, P=0.99, FIG. 5C, upper panel and FIG. 5D, blank columns).
To determine the efficacy of vinpocetine in vivo, the number of TH^+ cells in the substantia nigra was determined in mice treated with daily injections of 25 mg/kg vinpocetine in solvent or the corresponding amount of solvent alone.

microglial marker ibal = conditions: mouse, in vivo
[4] = system: α-syn overexpressing LUHMES cells; experiment: Number of vital DAPI-stained nuclei (cell counts); assay type: cell-based, human; conditions: 20 μM vinpocetine; α-syn with DMSO 57.0±3.4%
Excerpt: (§1) FIG. 3 The PDE1 inhibitor vinpocetine reduces cell death and 37 kDa α-syn specimen. (A) Cell counts of untransduced control cells (Ctrl, white bar), solvent treated α-syn transduced cells (black bar) and α-syn transduced cells with treated with different concentrations of vinpocetine (dark grey bars) confirmed the protective effect of vinpocetine. […] (C) Quantification of the CellEvent™ signal in untransduced control cells (Ctrl, left bar), α-syn transduced cells treated with solvent (black bar) and vinpocetine treated α-syn transduced cells (dark grey bar). (D) Representative Western blot of control cells (Ctrl), α-syn transduced cells without or with treatment vinpocetine in different concentrations. (E-H) Quantification of specific α-syn positive Western blot bands. […] The density of the 37 kDa band positively correlated with the LDH release (r^2=0.99, P<0.001, I) and negatively correlated with the number of vital cells (r^2=0.96, P<0.01, J). *P<0.05, **P<0.01, ***<0.001, n.s. not significant, one-way ANOVA with Tukey's HSD post-hoc test. Data are mean±s.e.m.
(§2) To validate the data from the LDH measurement, we determined the number of vital 4′,6-diamidino-2-phenylindole (DAPI)-stained nuclei in untransduced control cells and α-syn overexpressing cells treated without or with ascending concentrations of vinpocetine. […]

caspase 3 and 7 = experiment: CellEvent fluorescence signal for activated caspase 3 and 7; assay type: cell-based, human; conditions: 20 μM vinpocetine; untransduced 1.0±0.2, α-syn with DMSO 74.8±5.7
Excerpt: as §1, §2

[5] = vinpocetine treated mice, daily intraperitoneal 25 mg/kg

Nc1nc(-c2nn(Cc3ccccc3F)c3ncccc23)ncc1C1CC1 [BAY41-2272]
relative LDH release compared to α-syn overexpressing control cells ([1]; 1 μM BAY41-2272): 56.2±7.8% | change of 37 kDa α-Syn band (Western blot, C20 antibody) (α-syn; α-Syn-transduced neurons with forskolin or BAY41-2272, FIG. 4d,e): reduction of a 37 kDa α-Syn band

COc1ccc(C2CNC(=O)C2)cc1OC1CCCC1 (stereo not drawn) [Rolipram]
effect of specific PDE inhibitors on α-syn mediated toxicity (LDH release) ([1]; different concentrations): did not have an effect

Cc1ccc([N+](=O)[O-])cc1S(=O)(=O)N(C)C [BRL 50481]
effect of specific PDE inhibitors on α-syn mediated toxicity (LDH release) ([1]; different concentrations): did not have an effect

NC1=N[C@H](O)[C@H]2[C@H]3O[C@]4(O)O[C@@H]([C@@H](O)[C@@]2(N1)[C@@H]4O)[C@]3(O)CO [tetrodotoxin]
effect of cation channel blockers on α-syn mediated toxicity (LDH release) [1]: did not affect

COC(=O)C1=C(C)NC(C)=C(C(=O)OC(C)C)C1c1cccc2nonc12 (stereo not drawn) [isradipine]
effect of cation channel blockers on α-syn mediated toxicity (LDH release) ([1]; different concentrations, FIG. 4A,B): did not affect

C[C@H](Cc1nc2c(cnn2-c2ccccc2Cl)c(=O)[nH]1)C(F)(F)F [Bay 73-6691]
effect of specific PDE inhibitors on α-syn mediated toxicity (LDH release) ([1]; different concentrations): did not have an effect

Cc1[nH]c(=O)c(C#N)cc1-c1ccncc1 [Milrinone]
effect of specific PDE inhibitors on α-syn mediated toxicity (LDH release) ([1]; different concentrations): did not have an effect

OCCN(CCO)c1nc(N2CCCCC2)c2nc(N(CCO)CCO)nc(N3CCCCC3)c2n1 [dipyridamole]
protective hit (Z-score above 2.5) in cell survival screening [2]: protective in all six runs | LDH level compared to α-syn overexpressing LUHMES cells with DMSO treatment ([1]; Five μM dipyridamole): 77.0±5.1%

vinpocetine
effect of specific PDE inhibitors on α-syn mediated toxicity (LDH release) ([1]; different concentrations): significant protection in a dose dependent manner | difference in number of TH+ neurons between solvent and vinpocetine treatment ([3]; NaCl and rAAV-luc injection groups): no difference | number of TH+ cells in the substantia nigra on the rAAV-α-syn injection side ([3]; mice, daily intraperitoneal 25 mg/kg vinpocetine, 9-week period, solvent treated 2915±79): 3870±141 cells and 3870±14 cells | protection against α-syn-induced cell death of TH+ neurons in vivo ([3]; rAAV-α-syn injected mice, vinpocetine once daily intraperitoneal, 9 weeks, FIG. 5F): completely prevented α-syn-induced cell death | number of TH+ cells on the injection side, NaCl injected mice [3, 5]: 3984±160 cells | number of TH+ cells on the injection side, rAAV-luc injected mice [3, 5]: 3860±138 cells | ibal-immunoreactivity, vinpocetine versus solvent treatment (microglial marker ibal): nor any differences between vinpocetine and solvent treatment | cells survived (cell number compared to untransduced controls) [4]: 85.1±4.1% | relative CellEvent signal (activated caspase 3 and 7) (caspase 3 and 7): 25.6±2.1 | reduction of density of 37 kDa α-syn band compared to α-syn overexpressing cells treated with DMSO (α-syn; 20 μM vinpocetine): 52.2±6.6% | α-syn monomer band compared to untransduced controls (α-syn; 20 μM vinpocetine, DMSO treated α-syn cells 3.4±0.1-fold): 5.1±0.4 fold | change in other α-syn bands (α-syn; vinpocetine treatment, FIG. 3G,H): no change

CCCc1nn(C)c2c(=O)[nH]c(-c3cc(S(=O)(=O)N4CCN(C)CC4)ccc3OCC)nc12 [Sildenafil]
effect of specific PDE inhibitors on α-syn mediated toxicity (LDH release) ([1]; different concentrations): did not have an effect

COc1ccc(Cc2nn3c([C@@H](CCCc4ccccc4)[C@@H](C)O)nc(C)c3c(=O)[nH]2)cc1OC [Bay60-7550]
effect of specific PDE inhibitors on α-syn mediated toxicity (LDH release) ([1]; different concentrations): did not have an effect
